One compound from patent US10189858B2, “Deuterium-enriched isoindolinonyl-piperidinonyl conjugates and oxoquinazolin-3(4H)-yl-piperidinonyl conjugates and methods of treating medical disorders using same” (DeuteRx, LLC, priority 2015, dated 2019) can be followed below.

This series is described as follows: Deuterium/hydrogen (D/H) exchange in deuterium-enriched dBET1 in PBS (HPLC/UV and LC/MS). It is filed as physicochemical. The note with it: PBS pH 7.4, 25° C. How it is done:
In order to evaluate the stability against racemization provided by deuterium enrichment at the racemizable chiral center of the glutarimide portion of dBET1, a sample of racemic, deuterium-enriched dBET1 from Example 1 (i.e., D-dBET1 from Example 1) was incubated in PBS (pH=7.4) at 25° C. in the presence of ethyl paraben as an internal standard. A 20 μL solution of racemic, deuterium-enriched dBET1 (D-dBET1), aliquoted from 21.6 mg dissolved in 1 mL DMSO, was added to 4 mL of PBS (pH=7.4). The reaction was performed in duplicate. Aliquots were taken out at preset times and quenched with methanol in the presence of acetic acid (250 μL aliquot quenched with 500 μL 5% (v/v) acetic acid in methanol). The samples were analyzed by HPLC/UV (10 μL injection) and LC/MS (1 μL injection) using a reverse-phase column.
Since the reaction is performed in an achiral medium, the kinetics of D/H exchange will be independent of the chirality of the starting material. As a result, separation of the enantiomers of D-dBET1 prior to the stability study is not required.
A change in the ratio is expected if D/H exchange is observed since, for example, a peak at M+2, where M is the mass of the mono-deuterated isotopomer of dBET1, would by D/H exchange disappear and give a corresponding peak at M+1. Similarly, M+3 would give M+2, etc.

Consider `[2H]C1(N2C(=O)c3cccc(OCC(=O)NCCCCNC(=O)C[C@@H]4N=C(c5ccc(Cl)cc5)c5c(sc(C)c5C)-n5c(C)nnc54)c3C2=O)CCC(=O)NC1=O` (mixture of isomers) [D-dBET1], for which the half-life at 0.107 mg/mL is > 24 h. Further, under “ethyl paraben internal standard”, the “area of chromatography peak normalized to internal standard (UV analysis)” value is “decreased as a function of the incubation time”. For the same compound, the “change of mass spectral isotopic distribution as a function of incubation time” value (up to 24h, LC/MS) is listed as “did not change significantly”.

Usually half-life stands for the time needed for the level to fall by half in the phase considered. A high value points to slow loss.
